According to patent publication US20240116951A1, “HETEROCYCLIC COMPOUNDS AND USES THEREOF” (Kumquat Biosciences Inc., priority 2022, published 2024):

What was measured:
Assay type in all cases: binding
KRAS G12S = biological target: T1, KRAS G12S (Homo sapiens, UniProt P01116, G12S); assay: HTRF assay of K-Ras G12S interaction with SOS1 (PPI-HTRF); conditions: 5 nM KRAS G12S, read-out: PPI-HTRF-5 nM KRAS G12S
T1 construct: made in house; host or cells: E. coli, e.g. BL21 (DE3)
In short: (§1)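 GST-KRas + antiGST-Eu(K); His-hSOS1 + anti-6His-XL665. Buffer ~5 mM HEPES pH 7.4/150 mM NaCl/1 mM DTT/0.05% BSA/0.0025% Igepal. Cpd in DMSO, duplicates 10–0.01 μM; ≥10 min incubation, HTRF 620/665 nm, IC50 from ratio.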

KRAS G12D = biological target: T2, KRAS G12D (Homo sapiens, UniProt P01116, G12D); assay: HTRF assay of K-Ras G12D interaction with SOS1 (PPI-HTRF); conditions: HTRF, 5 nM KRAS G12D; read-out: PPI-HTRF-5 nM KRAS G12D
T2 construct: made in house; host or cells: E. coli, e.g. BL21 (DE3)
In short: as §1

KRAS WT = biological target: T3, KRAS WT (Homo sapiens, UniProt P01116); assay: HTRF assay of wildtype K-Ras interaction with SOS1 (PPI-HTRF); conditions: HTRF, 5 nM KRAS WT; read-out: PPI-HTRF-5 nM KRAS WT
T3 construct: made in house; host or cells: E. coli, e.g. BL21 (DE3)
In short: as §1

T1 sequence (P01116 1-188 isoform P01116-2 G12S): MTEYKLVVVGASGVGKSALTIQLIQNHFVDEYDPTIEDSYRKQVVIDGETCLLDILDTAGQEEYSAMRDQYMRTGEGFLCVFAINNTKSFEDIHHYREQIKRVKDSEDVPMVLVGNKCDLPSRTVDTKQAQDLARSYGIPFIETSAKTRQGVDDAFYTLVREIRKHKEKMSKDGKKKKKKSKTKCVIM
T3 sequence (P01116 1-188 isoform P01116-2): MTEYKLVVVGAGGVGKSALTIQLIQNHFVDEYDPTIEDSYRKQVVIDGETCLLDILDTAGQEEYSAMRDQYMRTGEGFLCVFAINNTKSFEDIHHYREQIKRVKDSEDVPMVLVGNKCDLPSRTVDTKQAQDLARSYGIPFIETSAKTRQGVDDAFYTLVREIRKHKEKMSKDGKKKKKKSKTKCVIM
T2 sequence (P01116 1-188 isoform P01116-2 G12D): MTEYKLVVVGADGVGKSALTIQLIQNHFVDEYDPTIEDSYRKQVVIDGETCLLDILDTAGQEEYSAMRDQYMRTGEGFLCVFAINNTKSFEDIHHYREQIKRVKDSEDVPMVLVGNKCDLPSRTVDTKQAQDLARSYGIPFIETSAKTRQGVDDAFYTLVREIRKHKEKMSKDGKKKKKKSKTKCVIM

| IC50 (KRAS G12S) | IC50 (KRAS G12D) | IC50 (KRAS WT) | SMILES |
| --- | --- | --- | --- |
| < 5 µM | < 5 µM | < 5 µM | N#Cc1c(N)sc2c(F)ccc(-c3c(Cl)cc4c(N5CCCC6(CCN6C(=O)n6cncn6)C5)nc(OC[C@@]56CCCN5C[C@H](F)C6)nc4c3F)c12 (stereo partly drawn) [Compound 275, 4-(4-(1-(1H-1,2,4-triazole-1-carbonyl)-1,6-diazaspiro[3.5]nonan-6-yl)-6-chloro-8-fluoro-2-(((2R,7aS)-2-fluorotetrahydro-1H-pyrrolizin-7a(5H)-yl)methoxy)quinazolin-7-yl)-2-amino-7-fluorobenzo[b]thiophene-3-carbonitrile] |
| < 5 µM | < 5 µM | < 5 µM | N#Cc1c(NC(=O)C2CC2(F)F)sc2c(F)ccc(-c3c(F)c4nc(OC[C@@]56CCCN5C[C@H](F)C6)nc(N5CCC6(CCN6C(=O)C6CC6(F)F)C5)c4c(=O)n3C3CC3)c12 (stereo partly drawn) [Compound 343, N-(3-cyano-4-(6-cyclopropyl-4-(1-(2,2-difluorocyclopropane-1-carbonyl)-1,6-diazaspiro[3.4]octan-6-yl)-8-fluoro-2-(((2R,7aS)-2-fluorotetrahydro-1H-pyrrolizin-7a(5H)-yl)methoxy)-5-oxo-5,6-dihydropyrido[4,3-d]pyrimidin-7-yl)-7-fluorobenzo[b]thiophen-2-yl)-2,2-difluorocyclopropane-1-carboxamide] |
| < 5 µM | < 5 µM | < 5 µM | C[C@H]1N(c2nc(OC[C@@]34CCCN3C[C@H](F)C4)nc3c(F)c(-c4ccc(F)c5sc(N)c(C#N)c45)c(Cl)cc23)CC[C@@]12CCN2C(=O)n1cnc(Cl)n1 [Compound 263, 2-amino-4-(6-chloro-4-((4R,5R)-1-(3-chloro-1H-1,2,4-triazole-1-carbonyl)-5-methyl-1,6-diazaspiro[3.4]octan-6-yl)-8-fluoro-2-(((2R,7aS)-2-fluorotetrahydro-1H-pyrrolizin-7a(5H)-yl)methoxy)quinazolin-7-yl)-7-fluorobenzo[b]thiophene-3-carbonitrile] |
| < 5 µM | < 5 µM | < 5 µM | Cc1cn(C(=O)N2CCC23CCN(c2nc(OC[C@@]45CCCN4C[C@H](F)C5)nc4c(F)c(-c5ccc(F)c6sc(N)c(C#N)c56)c(Cl)cc24)C3)nn1 (stereo partly drawn) [Compound 336, 2-amino-4-(6-chloro-8-fluoro-2-(((2R,7aS)-2-fluorotetrahydro-1H-pyrrolizin-7a(5H)-yl)methoxy)-4-(1-(4-methyl-1H-1,2,3-triazole-1-carbonyl)-1,6-diazaspiro[3.4]octan-6-yl)quinazolin-7-yl)-7-fluorobenzo[b]thiophene-3-carbonitrile] |
| < 5 µM | < 5 µM | < 5 µM | N#Cc1c(N)sc2c(F)ccc(-c3c(Cl)cc4c(N5CCC6(CCN6C(=O)ON6C(=O)CCC6=O)C5)nc(OC[C@@]56CCCN5C[C@H](F)C6)nc4c3F)c12 (stereo partly drawn) [Compound 243, 2,5-dioxopyrrolidin-1-yl 6-(7-(2-amino-3-cyano-7-fluorobenzo[b]thiophen-4-yl)-6-chloro-8-fluoro-2-(((2R,7aS)-2-fluorotetrahydro-1H-pyrrolizin-7a(5H)-yl)methoxy)quinazolin-4-yl)-1,6-diazaspiro[3.4]octane-1-carboxylate] |
| < 5 µM | < 5 µM | < 5 µM | N#Cc1c(N)sc2c(F)ccc(-c3c(Cl)cc4c(N5CCC6(C5)N(C(=O)n5cncn5)CC6(F)F)nc(OC[C@@]56CCCN5C[C@H](F)C6)nc4c3F)c12 (stereo partly drawn) [Compound 283, 2-amino-4-(6-chloro-4-(3,3-difluoro-1-(1H-1,2,4-triazole-1-carbonyl)-1,6-diazaspiro[3.4]octan-6-yl)-8-fluoro-2-(((2R,7aS)-2-fluorotetrahydro-1H-pyrrolizin-7a(5H)-yl)methoxy)quinazolin-7-yl)-7-fluorobenzo[b]thiophene-3-carbonitrile] |
| < 5 µM | < 5 µM | < 5 µM | N#Cc1c(N)sc2c(F)ccc(-c3c(Cl)cc4c(N5CCC6(CC5)CCN6C(=O)C5CC5(F)F)nc(OC[C@@]56CCCN5C[C@H](F)C6)nc4c3F)c12 (stereo partly drawn) [Compound 342, 2-amino-4-(6-chloro-4-(1-(2,2-difluorocyclopropane-1-carbonyl)-1,7-diazaspiro[3.5]nonan-7-yl)-8-fluoro-2-(((2R,7aS)-2-fluorotetrahydro-1H-pyrrolizin-7a(5H)-yl)methoxy)quinazolin-7-yl)-7-fluorobenzo[b]thiophene-3-carbonitrile] |
| < 5 µM | < 5 µM | < 5 µM | N#Cc1c(N)sc2c(F)ccc(-c3c(Cl)cc4c(N5CCCC6(CCCN6C(=O)n6cncn6)C5)nc(OC[C@@]56CCCN5C[C@H](F)C6)nc4c3F)c12 (stereo partly drawn) [Compound 208, 4-(4-(1-(1H-1,2,4-triazole-1-carbonyl)-1,7-diazaspiro[4.5]decan-7-yl)-6-chloro-8-fluoro-2-(((2R,7aS)-2-fluorotetrahydro-1H-pyrrolizin-7a(5H)-yl)methoxy)quinazolin-7-yl)-2-amino-7-fluorobenzo[b]thiophene-3-carbonitrile] |
| < 5 µM | > 5 µM | > 5 µM | N#Cc1c(N)sc2c(F)ccc(-c3c(Cl)cc4c(N5CC6(CCN6C(=O)n6cnc(Cl)n6)CC5C(F)F)nc(OC[C@@]56CCCN5C[C@H](F)C6)nc4c3F)c12 (stereo partly drawn) [Compound 323, 2-amino-4-(6-chloro-4-(1-(3-chloro-1H-1,2,4-triazole-1-carbonyl)-7-(difluoromethyl)-1,6-diazaspiro[3.4]octan-6-yl)-8-fluoro-2-(((2R,7aS)-2-fluorotetrahydro-1H-pyrrolizin-7a(5H)-yl)methoxy)quinazolin-7-yl)-7-fluorobenzo[b]thiophene-3-carbonitrile] |
| < 5 µM | > 5 µM | > 5 µM | C#Cc1c(F)ccc2cc(O)cc(-c3ncc4c(N5CCC6(CCN6C(=O)n6cncn6)C5)nc(O[C@@H](C)[C@@H]5CCCN5C)nc4c3F)c12 (stereo partly drawn) [Compound 256, (6-(7-(8-ethynyl-7-fluoro-3-hydroxynaphthalen-1-yl)-8-fluoro-2-((S)-1-((S)-1-methylpyrrolidin-2-yl)ethoxy)pyrido[4,3-d]pyrimidin-4-yl)-1,6-diazaspiro[3.4]octan-1-yl)(1H-1,2,4-triazol-1-yl)methanone] |
| < 5 µM | < 5 µM | < 5 µM | Nc1nc2c(-c3c(Cl)cc4c(N5CCC6(CCN6)C5)nc(OC[C@@]56CCCN5C[C@H](F)C6)nc4c3F)ccc(F)c2s1 (stereo partly drawn) [Compound 242, 4-(6-chloro-8-fluoro-2-(((2R,7aS)-2-fluorotetrahydro-1H-pyrrolizin-7a(5H)-yl)methoxy)-4-(1,6-diazaspiro[3.4]octan-6-yl)quinazolin-7-yl)-7-fluorobenzo[d]thiazol-2-amine] |
| < 5 µM | < 5 µM | < 5 µM | C[C@H](Oc1nc(N2CC[C@@]3(CCN3C(=O)C3CC3(F)F)C2)c2cc(Cl)c(-c3ccc(F)c4sc(N)c(C#N)c34)c(F)c2n1)[C@@H]1CCCN1C (stereo partly drawn) [Compound 346, (4S)-2-amino-4-(6-chloro-4-((4R)-1-(2,2-difluorocyclopropane-1-carbonyl)-1,6-diazaspiro[3.4]octan-6-yl)-8-fluoro-2-((S)-1-((S)-1-methylpyrrolidin-2-yl)ethoxy)quinazolin-7-yl)-7-fluorobenzo[b]thiophene-3-carbonitrile] |
| < 5 µM | < 5 µM | < 5 µM | Cc1ncn(C(=O)N2CC[C@]23CCN(c2nc(OC[C@@]45CCCN4C[C@H](F)C5)nc4c(F)c(-c5ccc(F)c6sc(N)c(C#N)c56)c(Cl)cc24)C3)n1 [Compound 222, 2-amino-4-(6-chloro-8-fluoro-2-(((2R,7aS)-2-fluorotetrahydro-1H-pyrrolizin-7a(5H)-yl)methoxy)-4-((S)-1-(3-methyl-1H-1,2,4-triazole-1-carbonyl)-1,6-diazaspiro[3.4]octan-6-yl)quinazolin-7-yl)-7-fluorobenzo[b]thiophene-3-carbonitrile] |
| < 5 µM | < 5 µM | < 5 µM | C[C@H]1CN[C@]12CCN(c1nc(OC[C@@]34CCCN3C[C@H](F)C4)nc3c(F)c(-c4ccc(F)c5sc(N)c(C#N)c45)c(Cl)cc13)C2 [Compound 334, 2-amino-4-(6-chloro-8-fluoro-2-(((2R,7aS)-2-fluorotetrahydro-1H-pyrrolizin-7a(5H)-yl)methoxy)-4-((3S,4R)-3-methyl-1,6-diazaspiro[3.4]octan-6-yl)quinazolin-7-yl)-7-fluorobenzo[b]thiophene-3-carbonitrile] |
| < 5 µM | < 5 µM | < 5 µM | Nc1nc2c(-c3ccc4c(N5CCC6(CCN6)CC5)nc(OC[C@@]56CCCN5C[C@H](F)C6)nc4c3F)ccc(F)c2s1 [Compound 204, 7-fluoro-4-(8-fluoro-2-(((2R,7aS)-2-fluorotetrahydro-1H-pyrrolizin-7a(5H)-yl)methoxy)-4-(1,7-diazaspiro[3.5]nonan-7-yl)quinazolin-7-yl)benzo[d]thiazol-2-amine] |
| < 5 µM | < 5 µM | < 5 µM | Nc1nc2c(-c3c(F)c4nc(OC[C@@]56CCCN5C[C@H](F)C6)nc(N5CCC6(CCN6C(=O)n6cncn6)C5)c4c(=O)n3C3CC3)ccc(F)c2s1 (stereo partly drawn) [Compound 257, 4-(1-(1H-1,2,4-triazole-1-carbonyl)-1,6-diazaspiro[3.4]octan-6-yl)-7-(2-amino-7-fluorobenzo[d]thiazol-4-yl)-6-cyclopropyl-8-fluoro-2-(((2R,7aS)-2-fluorotetrahydro-1H-pyrrolizin-7a(5H)-yl)methoxy)pyrido[4,3-d]pyrimidin-5(6H)-one] |
